Eleven molecules from ChEMBL document CHEMBL1201862, “PubChem BioAssay data set” (2004) can be followed below.

The structures appear in SMILES notation.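 Following 48 hours of exposure in 96-well plates, responses at five concentrations were used to interpolate endpoints linearly. GI50 is the concentration that inhibits growth by half.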 Activity calls are given as the source filed them. Cut-off read from the data, not from the text of the source: active = GI50 up to about 1.1 µM and inactive = higher. Where a SMILES comes first, the peptide text is derived from it. [ ]: non-standard residue; d: D form. The star is where a group is joined. Bn2Val = CC(C)[C@@H](C(=O)*)N(Cc1ccccc1)Cc1ccccc1; NHPiperonyl = c1cc2c(cc1CN*)OCO2; NMeV = CN[C@H](C(=O)O)C(C)C; dNMeA = CN[C@H](C)C(=O)O

Some test systems named below: 786-0; OVCAR-8; KM12; SK-OV-3; A498; HT-29; COLO 205; TK-10; BT-549; SW-620; SF-539; NCI-H522; SNB-19; OVCAR-5; DU-145; SNB-75; U-251; OVCAR-4; HL-60; SR.
Test in all cases: NCI anticancer screen, dose series, 48 h

`Oc1ccc2ccccc2c1OCc1nnc(CCCCCCCCc2nnc(COc3c(O)ccc4ccccc34)n2Nc2ccccc2)n1Nc1ccccc1`: the GI50 is 21.5 µM (inactive) in the assay on 786-0; 20.9 µM (inactive) in the assay with OVCAR-8; 12.5 µM (inactive) with KM12; 16.5 µM (inactive) in the assay with SK-OV-3; 40.7 µM (inactive) in the assay on A498; 10.7 µM (inactive) with HT-29. Moreover, the GI50 is 0.399 µM (active) in the assay with COLO 205; 22.6 µM (inactive) in the assay on TK-10; 6.19 µM (inactive) with BT-549; 18 µM (inactive) with SW-620; 6.85 µM (inactive) in the assay on SF-539; 11.1 µM (inactive) with NCI-H522. The GI50 in the assay on SNB-19 is 20.7 µM (inactive); in the assay with OVCAR-5, 2.51 µM (inactive); in the assay with DU-145, 19.7 µM (inactive); with SNB-75, 38.4 µM (inactive); in the assay with U-251 it was 19 µM (inactive); with OVCAR-4, 10.7 µM (inactive).
For `COc1ccc(-c2nc(SCC(=O)NNC(=S)Nc3ccccc3)[nH]c2-c2ccc(OC)cc2)cc1`, the GI50 in the assay with 786-0 is 23.7 µM (inactive); in the assay with OVCAR-8 it was 39.9 µM (inactive); in the assay on KM12, 24.9 µM (inactive); in the assay on SK-OV-3 it was 27.2 µM (inactive); with A498, 22.9 µM (inactive); in the assay on HT-29 it was 35.2 µM (inactive). Further, the GI50 is 15.3 µM (inactive) in the assay on COLO 205; 40.6 µM (inactive) with TK-10; 4.63 µM (inactive) in the assay with HL-60; 24 µM (inactive) in the assay with BT-549; 26.9 µM (inactive) with SW-620; 15.7 µM (inactive) in the assay with SF-539. Further, the GI50 in the assay on NCI-H522 is 22.7 µM (inactive); in the assay on SNB-19, 21.8 µM (inactive); with OVCAR-5 it was 23.7 µM (inactive); with DU-145, 28.7 µM (inactive); in the assay on SNB-75, 24.9 µM (inactive); with U-251, 17.5 µM (inactive). In addition, the GI50 in the assay with OVCAR-4 was 33.5 µM (inactive).
Turning to `C1=CC2C(C3CN(c4ccccc4)N=C13)C1C3C4C=CC21C=CC43` (stereo not drawn), the GI50 in the assay with 786-0 is > 100 µM (inactive); with OVCAR-8 it was > 95.3 µM (inactive); with KM12, > 100 µM (inactive); with SK-OV-3, > 100 µM (inactive); with A498, > 100 µM (inactive); in the assay with HT-29 it was > 100 µM (inactive). In addition, the GI50 in the assay on COLO 205, in the assay with TK-10, in the assay with HL-60, in the assay with BT-549, in the assay with SW-620 and in the assay on SF-539 was > 100 µM (inactive) in each case. The GI50 in the assay on NCI-H522 is 97.5 µM (inactive); with SNB-19 it was > 100 µM (inactive); in the assay on OVCAR-5 it was > 100 µM (inactive); in the assay on SNB-75, > 65.3 µM (inactive); in the assay on U-251, > 100 µM (inactive); in the assay with OVCAR-4, > 78.5 µM (inactive).
Regarding `CC12CCC(C(=O)O1)C(C)(C)O2` (stereo not drawn), the GI50 in the assay on 786-0, with OVCAR-8, in the assay with KM12, in the assay with SK-OV-3, in the assay on A498 and in the assay with HT-29 was > 100 µM (inactive) in each case. The GI50 in the assay on TK-10, with HL-60, in the assay on BT-549, in the assay on SW-620, in the assay on SF-539 and in the assay on NCI-H522 was > 100 µM (inactive) in each case. The GI50 with SR, in the assay with SNB-19, in the assay on OVCAR-5, with SNB-75, in the assay with U-251 and in the assay with OVCAR-4 was > 100 µM (inactive) each time.
Turning to `Cc1cc2c(cc1Cl)SC(NNC1=NCCN1)=NS2(=O)=O`, the GI50 in the assay with 786-0, in the assay with OVCAR-8, with KM12, in the assay with SK-OV-3, in the assay on A498 and with HT-29 was > 10 µM (inactive) throughout. The GI50 in the assay with COLO 205, in the assay with TK-10, with HL-60, in the assay on BT-549, with SW-620 and in the assay on SF-539 was > 10 µM (inactive) in each case. In addition, the GI50 in the assay on NCI-H522, in the assay on SNB-19, with OVCAR-5, with DU-145, in the assay on SNB-75 and in the assay with U-251 was > 10 µM (inactive) each time. Moreover, the GI50 in the assay with OVCAR-4 is > 10 µM (inactive).
For `COc1cccc(N2C(=O)C3c4[nH]c5ccccc5c4C4c5ccccc5CCC4C3C2=O)c1` (stereo not drawn), the GI50 is 2.9 µM (inactive) in the assay on 786-0; 2.34 µM (inactive) in the assay with OVCAR-8; > 10 µM (inactive) with KM12; > 4.86 µM (inactive) in the assay on SK-OV-3; 2.77 µM (inactive) with A498; 9.93 µM (inactive) in the assay with HT-29. Moreover, the GI50 in the assay on COLO 205 is > 7.87 µM (inactive); with TK-10, > 10 µM (inactive); with HL-60, > 10 µM (inactive); with BT-549 it was 4.91 µM (inactive); in the assay with SW-620, > 9.14 µM (inactive); with SF-539, 2.5 µM (inactive). The GI50 is > 10 µM (inactive) in the assay on NCI-H522; 3.31 µM (inactive) in the assay with SNB-19; > 10 µM (inactive) in the assay with OVCAR-5; > 10 µM (inactive) in the assay on DU-145; 2.7 µM (inactive) in the assay on SNB-75; 3.82 µM (inactive) with U-251. For the same molecule, the GI50 in the assay on OVCAR-4 is 2.75 µM (inactive).
Take `O=C1CC(c2ccccc2)C2(C(=O)NC(=S)NC2=O)C(c2ccccc2)C1` (stereo not drawn): the GI50 with 786-0, with OVCAR-8, in the assay with KM12, in the assay on HT-29, in the assay with COLO 205 and with TK-10 was > 75 µM (inactive) each time. The GI50 was 41.3 µM (inactive) in the assay on HL-60; > 75 µM (inactive) with BT-549; > 75 µM (inactive) in the assay with SW-620; > 75 µM (inactive) in the assay with SF-539; > 75 µM (inactive) in the assay with NCI-H522; 71 µM (inactive) in the assay on SR. Besides, the GI50 in the assay on SNB-19, with OVCAR-5, in the assay on DU-145, with SNB-75, with U-251 and in the assay with OVCAR-4 was > 75 µM (inactive) throughout.
For the molecule `CC(C)(C)CNC(=O)NCn1cc(-c2ccccc2)nn1`, the GI50 in the assay with 786-0, in the assay with OVCAR-8, in the assay on KM12, in the assay on HT-29, in the assay with COLO 205 and in the assay with TK-10 was > 100 µM (inactive) throughout. Further, the GI50 with HL-60, in the assay on BT-549, with SW-620, in the assay with SF-539, in the assay with NCI-H522 and in the assay on SR was > 100 µM (inactive) each time. Moreover, the GI50 with SNB-19 is > 100 µM (inactive); with OVCAR-5 it was > 100 µM (inactive); in the assay with DU-145, > 100 µM (inactive); in the assay with U-251 it was > 100 µM (inactive); with OVCAR-4 it was > 10 µM (inactive).
Turning to `CC(C)c1ccccc1SC1CC(=O)CC(Sc2ccccc2C(C)C)C12O[C@H](c1ccccc1)[C@@H](c1ccccc1)O2` (stereo partly drawn), the GI50 in the assay with 786-0 is 18.1 µM (inactive); with OVCAR-8, 35.4 µM (inactive); in the assay on KM12, 59.6 µM (inactive); with SK-OV-3 it was > 100 µM (inactive); in the assay with A498, > 100 µM (inactive); with HT-29, 58.5 µM (inactive). For the same molecule, the GI50 is 71.6 µM (inactive) with COLO 205; 85.9 µM (inactive) in the assay on TK-10; 12.3 µM (inactive) with HL-60; 51.1 µM (inactive) with BT-549; 39.2 µM (inactive) in the assay with SW-620; 57.1 µM (inactive) in the assay with SF-539. Further, the GI50 in the assay with SNB-19 was > 100 µM (inactive); in the assay on OVCAR-5, > 100 µM (inactive); in the assay on DU-145 it was 76.2 µM (inactive); with U-251 it was 20.3 µM (inactive); in the assay with OVCAR-4, 61.9 µM (inactive).
Consider `CC(C)[C@H](NC(=O)[C@H](C(C)C)N(Cc1ccccc1)Cc1ccccc1)C(=O)N(C)[C@H](C(=O)N1CCC[C@H]1C(=O)N(C)[C@H](C)C(=O)NCc1ccc2c(c1)OCO2)C(C)C` (Bn2Val-V[NMeV]P[dNMeA]-NHPiperonyl), for which the GI50 was 13.6 µM (inactive) in the assay with 786-0; 8.61 µM (inactive) in the assay on OVCAR-8; 4.83 µM (inactive) in the assay on KM12; 41.6 µM (inactive) with SK-OV-3; 3.03 µM (inactive) in the assay on HT-29; 2.15 µM (inactive) in the assay on COLO 205. Besides, the GI50 in the assay with TK-10 is 18.3 µM (inactive); in the assay on HL-60, 1.17 µM (inactive); in the assay with BT-549, 13.2 µM (inactive); in the assay with SW-620 it was 4.49 µM (inactive); in the assay with SF-539, 3.37 µM (inactive); in the assay on NCI-H522 it was 14.7 µM (inactive). The GI50 was 18.2 µM (inactive) in the assay with SNB-19; 4.38 µM (inactive) in the assay on OVCAR-5; 11.6 µM (inactive) in the assay on DU-145; 4.33 µM (inactive) in the assay on U-251; 5.85 µM (inactive) in the assay on OVCAR-4.
In the case of `COCn1cnc2c(=O)nc(SC)n(-c3ccccc3)c21`, the GI50 in the assay with 786-0, with OVCAR-8, in the assay with KM12, in the assay with SK-OV-3, with A498 and in the assay with HT-29 was > 100 µM (inactive) each time. The GI50 in the assay on COLO 205, in the assay with TK-10, in the assay on HL-60, in the assay on BT-549, in the assay with SW-620 and in the assay on SF-539 was > 100 µM (inactive) in each case. The GI50 with NCI-H522, with SNB-19, with OVCAR-5, with DU-145, in the assay with SNB-75 and in the assay on OVCAR-4 was > 100 µM (inactive) in each case.
